# Test system: 356 CRISPRi constructs in E. coli ΔtolC-pore
# Assay: CRISPRi collection fitness screen with sub-inhibitory compound
# Format: cell-based
# Settings: for Growth represented as mean colony biomass: 1μg/ml MAC0452936, 6ng/ml LolCDE-in-1, 250 ng/ml Vancomycin, 7 ng/ml CHIR090, n=4; for Growth, mean colony biomass (n=4): + 6ng/ml LolCDE-in-1
# Description: To that end, we screened the E. coli CRISPRi collection in the ΔtolC-pore genetic background with a sub-inhibitory concentration of MAC-0452936 and measured the fitness of all 356 CRISPRi mutants (Figure 4C and Data S4). […] To that end, we introduced either an arabinose inducible copy of lgt supplied on the pCHAP9231 plasmid[48] or the pBAD19s plasmid as a control into E. coli ΔtolC-pore and tested the potency of MAC-0452936 (Figure 4E). […] To test this hypothesis, we constructed E. coli ΔlgtΔtolC-pore with pCHAP9231[48] so that lgt expression was driven solely by arabinose from the plasmid.
# For screens of the CRISPRi collection with MAC-0452936, the mobile CRISPRi collection was first conjugated into E. coli ΔtolC-pore as previously described.[30] The CRISPRi collection was then arrayed on solid agar at 1536 density using the Singer-ROTOR, such that each CRISPRi strain is arrayed in technical quadruplicate. […] The screens were conducted without CRISPRi induction, using just the 5–10% basal knockdown from the pFD152 CRISPRi plasmid. Following overnight growth, plates were imaged using high-resolution scanners (Epson Perfection v750), and colony biomass for each mutant was determined.
# [1] = sub-inhibitory (¼ MIC) concentration, LB agar, basal knockdown
structure (smiles),measurement,setting,value
Fc1ccc(COc2cccc(-c3[nH]ncc3-c3ccncc3)c2)cc1 [LolCDE-in-1],Growth represented as mean colony biomass,gRNA plsB,0.8854
same,"Growth, mean colony biomass (n=4)",gRNA prmC,1.031
same,Growth represented as mean colony biomass,gRNA proS,1.0017
same,"Growth, mean colony biomass (n=4)",gRNA psd,1.234
same,"Growth, mean colony biomass (n=4)",gRNA pssA,0.9781
same,"Growth, mean colony biomass (n=4)",gRNA ptsI,1.151
same,Growth represented as mean colony biomass,gRNA racR,0.9577
same,"Growth, mean colony biomass (n=4)",gRNA rho,1.25
same,Growth represented as mean colony biomass,gRNA ribA,0.9663
same,Growth represented as mean colony biomass,gRNA ribC,0.899
same,"Growth, mean colony biomass (n=4)",gRNA ribD,1.034
same,Growth represented as mean colony biomass,gRNA ribF,0.9681
same,Growth represented as mean colony biomass,gRNA rimM,1.015
same,Growth represented as mean colony biomass,gRNA rluD,1.0361
same,"Growth, mean colony biomass (n=4)",gRNA rne,1.086
same,Growth represented as mean colony biomass,gRNA rpe,1.032
same,"Growth, mean colony biomass (n=4)",gRNA rplA,1.044
same,Growth represented as mean colony biomass,gRNA rplD,0.9769
same,Growth represented as mean colony biomass,gRNA rplE,0.973
same,Growth represented as mean colony biomass,gRNA rplJ,0.9047
same,Growth represented as mean colony biomass,gRNA rplO,0.9645
same,"Growth, mean colony biomass (n=4)",gRNA rplP,1.111
same,Growth represented as mean colony biomass,gRNA rplQ,1.063
same,Growth represented as mean colony biomass,gRNA rplS,0.9823
same,"Growth, mean colony biomass (n=4)",gRNA rplV,1.159
same,"Growth, mean colony biomass (n=4)",gRNA rplX,1.003
same,Growth represented as mean colony biomass,gRNA rplY,1.022
same,"Growth, mean colony biomass (n=4)",gRNA rpmC,1.247
same,Growth represented as mean colony biomass,gRNA rpmH,0.9499
same,Growth represented as mean colony biomass,gRNA rpmI,0.8822
same,"Growth, mean colony biomass (n=4)",gRNA rpoC,0.9718
same,"Growth, mean colony biomass (n=4)",gRNA rpoE,1.012
same,Growth represented as mean colony biomass,gRNA rpoH,1.025
same,"Growth, mean colony biomass (n=4)",gRNA rpsC,0.9823
same,"Growth, mean colony biomass (n=4)",gRNA rpsD,1.397
same,Growth represented as mean colony biomass,gRNA rpsE,1.159
same,Growth represented as mean colony biomass,gRNA rpsF,1.092
same,"Growth, mean colony biomass (n=4)",gRNA rpsG,0.9387
same,Growth represented as mean colony biomass,gRNA rpsH,1.028
same,"Growth, mean colony biomass (n=4)",gRNA rpsK,1.066
same,"Growth, mean colony biomass (n=4)",gRNA rpsL,0.9811
same,"Growth, mean colony biomass (n=4)",gRNA rpsM,1.056
same,"Growth, mean colony biomass (n=4)",gRNA rpsR,1.049
same,"Growth, mean colony biomass (n=4)",gRNA rpsT,1.1909
same,Growth represented as mean colony biomass,gRNA rsgA,0.9518
same,Growth represented as mean colony biomass,gRNA safA,0.9369
same,"Growth, mean colony biomass (n=4)",gRNA secA,1.053
same,Growth represented as mean colony biomass,gRNA secY,1.019
same,Growth represented as mean colony biomass,gRNA serS,1.011
same,Growth represented as mean colony biomass,gRNA ssb,1.001
same,Growth represented as mean colony biomass,gRNA sucA,0.955
same,"Growth, mean colony biomass (n=4)",gRNA suhB,0.9525
same,Growth represented as mean colony biomass,gRNA tilS,0.9992
same,Growth represented as mean colony biomass,gRNA tonB,0.9792
same,Growth represented as mean colony biomass,gRNA trmD,0.9503
same,Growth represented as mean colony biomass,gRNA tsaB,1.056
same,Growth represented as mean colony biomass,gRNA tsaD,0.9679
same,"Growth, mean colony biomass (n=4)",gRNA tsaE,1
same,Growth represented as mean colony biomass,gRNA tsf,1.027
same,Growth represented as mean colony biomass,gRNA tusE,1.013
same,Growth represented as mean colony biomass,gRNA tyrS,1.017
same,Growth represented as mean colony biomass,gRNA ubiB,0.9814
same,Growth represented as mean colony biomass,gRNA ubiD,0.9742
same,"Growth, mean colony biomass (n=4)",gRNA waaA,1.024
same,Growth represented as mean colony biomass,gRNA ydaS,0.9646
same,Growth represented as mean colony biomass,gRNA ydcD,0.9635
same,Growth represented as mean colony biomass,gRNA ydhL,0.9757
same,"Growth, mean colony biomass (n=4)",gRNA yedN,1.025
same,Growth represented as mean colony biomass,gRNA yejM,1.046
same,Growth represented as mean colony biomass,gRNA yffS,1.013
same,Growth represented as mean colony biomass,gRNA ygeF,0.9624
same,"Growth, mean colony biomass (n=4)",gRNA ygeN,1.008
same,Growth represented as mean colony biomass,gRNA yidC,0.8393
same,Growth represented as mean colony biomass,gRNA ymfE,0.903
same,Growth represented as mean colony biomass,gRNA ymiB,0.9243
same,"Growth, mean colony biomass (n=4)",gRNA yqeL,1.1914
same,Growth represented as mean colony biomass,gRNA yqgF,0.9509
same,"Growth, mean colony biomass (n=4)",gRNA zipA,1.134
same,"growth defect of CRISPRi strains for the compound's molecular target (LolCDE complex and LpxC, respectively)",[1],strongest growth defect
same,growth defect of the lgt CRISPRi mutant in the presence of compound,[1],did not demonstrate a growth defect
